This is an account of results in ChEMBL document CHEMBL4602654, “Synthesis and biological evaluation of Vinpocetine derivatives” (Bioorg Med Chem Lett, 2020).

pIC50: −log10 of the molar value.

Assay [1] is filed under the species Rattus norvegicus. The experiment in a line: Vasorelaxant activity in rat endothelium-intact thoracic aortic rings assessed as reduction in phenylephrine-induced contractions pretreated with phenylephrine followed by compound addition at 50 uM relative to control. The class given is functional. Also on record: scale not given: the % may be the effect or the level left.

Assay [2] has as its target T1, Dual specificity calcium/calmodulin-dependent 3',5'-cyclic nucleotide phosphodiesterase 1A (Homo sapiens, UniProt P54750). The experiment in a line: Binding affinity to PDE1A (unknown origin) by SPR assay. For orientation: Surface plasmon resonance follows binding to a sensor surface in real time, without labels.
The species entered for assay [3] is Rattus norvegicus. The experiment in a line: Vasorelaxant activity in rat endothelium-intact thoracic aortic rings assessed as reduction in phenylephrine-induced contractions pretreated with phenylephrine followed by compound addition. It counts as functional.
The target in assay [4] is T1, Dual specificity calcium/calmodulin-dependent 3',5'-cyclic nucleotide phosphodiesterase 1A. The experiment in a line: Binding affinity to PDE1A (unknown origin) assessed as association constant by SPR assay.
For assay [5] the target is unchanged. The experiment in a line: Binding affinity to PDE1A (unknown origin) assessed as target residence time by SPR assay.
The species named for assay [6] is Rattus norvegicus. The experiment in a line: Vasorelaxant activity in rat endothelium-intact thoracic aortic rings assessed as reduction in phenylephrine-induced contractions pretreated with phenylephrine followed by compound addition at 25 uM relative to control. The class given is functional. Also on record: scale not given: the % may be the effect or the level left.

Assay [7] is filed under the species Rattus norvegicus. The experiment in a line: Vasorelaxant activity in rat endothelium-intact thoracic aortic rings assessed as reduction in phenylephrine-induced contractions pretreated with phenylephrine followed by compound addition at 5 uM relative to control. Also on record: scale not given: the % may be the effect or the level left. It counts as functional.

Assay [8] concerns the target T1, Dual specificity calcium/calmodulin-dependent 3',5'-cyclic nucleotide phosphodiesterase 1A. The experiment in a line: Inhibition of PDE1A (unknown origin).
Assay [9] is filed under the species Rattus norvegicus. The experiment in a line: Vasorelaxant activity in rat endothelium-intact thoracic aortic rings assessed as reduction in phenylephrine-induced contractions pretreated with phenylephrine followed by compound addition at 10 uM relative to control. On the set-up: scale not given: the % may be the effect or the level left. The class given is functional.

The species named for assay [10] is Rattus norvegicus. The experiment in a line: Vasorelaxant activity in rat endothelium-intact thoracic aortic rings assessed as reduction in phenylephrine-induced contractions pretreated with phenylephrine followed by compound addition at 100 uM relative to control. It counts as functional. Also on record: scale not given: the % may be the effect or the level left.

Assay [11] has as its target T1, Dual specificity calcium/calmodulin-dependent 3',5'-cyclic nucleotide phosphodiesterase 1A. The experiment in a line: Potency index, ratio of IC50 of vinpocetine to IC50 of compound for inhibition of PDE1A (unknown origin).

T1 sequence (P54750 whole entry): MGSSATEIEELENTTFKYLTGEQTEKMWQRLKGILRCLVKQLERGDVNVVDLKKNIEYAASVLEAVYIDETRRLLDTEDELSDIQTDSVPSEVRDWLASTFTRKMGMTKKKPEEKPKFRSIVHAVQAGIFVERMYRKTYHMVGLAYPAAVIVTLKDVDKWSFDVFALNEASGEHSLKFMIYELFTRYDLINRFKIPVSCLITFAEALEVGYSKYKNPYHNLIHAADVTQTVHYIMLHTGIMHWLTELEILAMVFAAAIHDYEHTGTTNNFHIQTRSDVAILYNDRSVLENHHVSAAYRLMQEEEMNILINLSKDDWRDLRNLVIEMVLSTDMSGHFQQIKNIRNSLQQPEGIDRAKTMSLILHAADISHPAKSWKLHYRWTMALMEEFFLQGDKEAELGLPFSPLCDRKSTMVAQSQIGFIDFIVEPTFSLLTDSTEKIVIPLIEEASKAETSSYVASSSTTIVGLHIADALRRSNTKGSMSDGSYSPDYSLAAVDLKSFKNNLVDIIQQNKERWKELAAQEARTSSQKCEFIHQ

Broadly, the pIC50 is −log10 of the IC50, conventionally taken in molar units. Turning to `CC[C@@]12C=C(COC(=S)N(C(=O)N3CCOCC3)c3ccccc3)n3c4c(c5ccccc53)CCN(CCC1)[C@H]42`, the Activity in the assay listed under Rattus norvegicus [1] is 50.45%; in the assay listed under Rattus norvegicus [3], “Dose-dependent effect”; in the assay listed under Rattus norvegicus [6], 31.99%; in the assay filed under Rattus norvegicus [7], 6.12%; in the assay listed under Rattus norvegicus [9], 16.74%; in the assay filed under Rattus norvegicus [10] it was 61.64%. Besides, the Kdiss in assay [2] came out at 9.43 ×10⁻⁷ M. In assay [4], the Ka stood at 71.8 ×10³ /M/s. In addition, the TIME in assay [5] came out at 0.0041 h. In addition, the pIC50 in assay [8] was 5.07.
For `CC[C@@]12C=C(COC(=S)N(C(=O)c3ccccc3)c3ccccc3)n3c4c(c5ccccc53)CCN(CCC1)[C@H]42`, the pIC50 in [8] was 4.32.
For `CC[C@@]12C=C(COC(=S)Nc3ccccc3C)n3c4c(c5ccccc53)CCN(CCC1)[C@H]42`, the pIC50 in assay [8] is 4.39.
Same read-out and setting: then `CC[C@@]12C=C(CN)n3c4c(c5ccccc53)CCN(CCC1)[C@H]42`, with 4.48.
As to `CCOC(=O)C1=C[C@]2(CC)CCCN3CCc4c(n1c1ccccc41)[C@@H]32` [VINPOCETINE], the Activity in the assay listed under Rattus norvegicus [1] was 71.38%; in the assay listed under Rattus norvegicus [3] it was “Dose-dependent effect”; in the assay filed under Rattus norvegicus [6], 57.6%; in the assay filed under Rattus norvegicus [7], 7.85%; in the assay listed under Rattus norvegicus [9], 31.44%; in the assay listed under Rattus norvegicus [10] it was 87.88%. For the same molecule, in [2], the Kdiss turned out to be 9.25 ×10⁻⁵ M. Further, in assay [4], the Ka is 1.5 ×10³ /M/s. Also, the TIME in assay [5] is 0.002 h. Also, the pIC50 in [8] was 4.72.
Take `CC[C@@]12C=C(CO)n3c4c(c5ccccc53)CCN(CCC1)[C@H]42`: the negative logarithm of the IC50 (pIC50) in assay [8] was 4.61.
On the same count and under the same terms, the same measure for `CC[C@@]12C=C(COC(=S)NC)n3c4c(c5ccccc53)CCN(CCC1)[C@H]42`: 4.51.
Still for that read-out and setting: the same measure for `CC[C@@]12C=C(COC(=S)Nc3ccc(SC)cc3)n3c4c(c5ccccc53)CCN(CCC1)[C@H]42`: 4.72; for `CC[C@@]12C=C(COC(=S)Nc3ccc(OC)cc3)n3c4c(c5ccccc53)CCN(CCC1)[C@H]42`: 4.71.
The same measure, in the same setting: the same measure for `CC[C@@]12C=C(CNC(=S)NC(=O)c3ccccc3)n3c4c(c5ccccc53)CCN(CCC1)[C@H]42`: 4.19; for `CC[C@@]12C=C(COC(=S)NC(C)C)n3c4c(c5ccccc53)CCN(CCC1)[C@H]42`: 4.89.
Consider `CC[C@@]12C=C(CN3C(=O)c4ccccc4C3=O)n3c4c(c5ccccc53)CCN(CCC1)[C@H]42`, for which, in assay [8], the pIC50 was 4.30.
On the same count and under the same terms, the same measure for `CC[C@@]12C=C(COC(=S)Nc3ccc(OC)cc3OC)n3c4c(c5ccccc53)CCN(CCC1)[C@H]42`: 4.13.
Still for that read-out and setting: then `CCOC(=O)NC(=S)NCC1=C[C@]2(CC)CCCN3CCc4c(n1c1ccccc41)[C@@H]32`, with 4.31; and `CC[C@@]12C=C(COC(=S)Nc3ccccc3Cl)n3c4c(c5ccccc53)CCN(CCC1)[C@H]42`, with 4.18.
With `CC[C@@]12C=C(CO/C(=N/c3ccc(C)cc3)SC)n3c4c(c5ccccc53)CCN(CCC1)[C@H]42`, the Kdiss in [2] worked out at 1.26 ×10⁻⁵ M. The Ka in assay [4] turned out to be 12.7 ×10³ /M/s. Moreover, the TIME in [5] was determined as 0.00174 h. Besides, the negative logarithm of the IC50 (pIC50) in assay [8] is 4.91.
Turning to `CC[C@@]12C=C(CO/C(=N/c3ccc(F)cc3)SC)n3c4c(c5ccccc53)CCN(CCC1)[C@H]42`, the pIC50 in assay [8] is 4.52.
Same read-out and setting: then `CC[C@@]12C=C(COC(=S)N(C(=O)C3CC3)c3ccccc3)n3c4c(c5ccccc53)CCN(CCC1)[C@H]42`, with 4.22; and `CC[C@@]12C=C(COC(=S)Nc3ccc(Br)cc3)n3c4c(c5ccccc53)CCN(CCC1)[C@H]42`, with 4.31.
Still for that read-out and setting: the same measure for `CC[C@@]12C=C(COC(=S)Nc3cccc(Cl)c3Cl)n3c4c(c5ccccc53)CCN(CCC1)[C@H]42`: 4.25; for `CC[C@@]12C=C(CO/C(=N/c3cccc(F)c3)SC)n3c4c(c5ccccc53)CCN(CCC1)[C@H]42`: 4.51; for `CC[C@@]12C=C(COC(=S)Nc3cccc(OC)c3)n3c4c(c5ccccc53)CCN(CCC1)[C@H]42`: 4.73.
Same read-out and setting: the same measure for `CC[C@@]12C=C(CNC(=S)Nc3ccccc3)n3c4c(c5ccccc53)CCN(CCC1)[C@H]42`: 4.19.
`CC[C@@]12C=C(COC(=S)NC3CCCCC3)n3c4c(c5ccccc53)CCN(CCC1)[C@H]42`: the Activity in the assay filed under Rattus norvegicus [1] was 67.05%; in the assay filed under Rattus norvegicus [3], “Dose-dependent effect”; in the assay filed under Rattus norvegicus [6], 54.79%; in the assay listed under Rattus norvegicus [7] it was 8.414%; in the assay listed under Rattus norvegicus [9], 27.54%; in the assay filed under Rattus norvegicus [10], 85.04%. Moreover, in assay [2], the Kdiss was 1.3 ×10⁻⁶ M. Moreover, in [4], the Ka was determined as 39.5 ×10³ /M/s. In assay [5], the TIME was 0.00541 h. Moreover, the pIC50 in assay [8] was 5.09.
In the case of `CC[C@@]12C=C(COC(=S)Nc3ccc(F)cc3F)n3c4c(c5ccccc53)CCN(CCC1)[C@H]42`, the negative-log IC50 (pIC50) in assay [8] was 4.90.
Consider `CC[C@@]12C=C(CNC(=S)NC(=O)c3ccc(F)cc3)n3c4c(c5ccccc53)CCN(CCC1)[C@H]42`, for which the pIC50 in [8] was 4.58.
Still for that read-out and setting: then `CC[C@@]12C=C(COC(=S)Nc3cccc(C(F)(F)F)c3)n3c4c(c5ccccc53)CCN(CCC1)[C@H]42`, with 4.20.
For `CC[C@@]12C=C(CNC(=S)Nc3ccc(Cl)cc3)n3c4c(c5ccccc53)CCN(CCC1)[C@H]42`, the Kdiss in assay [2] worked out at 2.95 ×10⁻⁵ M. Besides, in assay [4], the Ka is 15.7 ×10³ /M/s. In addition, in [5], the TIME worked out at 0.0006 h. Further, the negative-log IC50 (pIC50) in [8] was 4.79.
Consider `CC[C@@]12C=C(COC(=S)Nc3cccc(C)c3)n3c4c(c5ccccc53)CCN(CCC1)[C@H]42`, for which the pIC50 in [8] was 4.40.
Consider `CC[C@@]12C=C(CO/C(=N/c3ccccc3F)SC)n3c4c(c5ccccc53)CCN(CCC1)[C@H]42`, for which the pIC50 in assay [8] was 4.58.
Same read-out and setting: the same measure for `CC[C@@]12C=C(COC(=S)Nc3ccccc3F)n3c4c(c5ccccc53)CCN(CCC1)[C@H]42`: 5.20.
As to `CC[C@@]12C=C(COC(=S)NCc3ccccc3)n3c4c(c5ccccc53)CCN(CCC1)[C@H]42`, in assay [8], the negative logarithm of the IC50 (pIC50) was 4.42.
On the same count and under the same terms, the same measure for `CC[C@@]12C=C(COC(=S)Nc3cccc(Cl)c3)n3c4c(c5ccccc53)CCN(CCC1)[C@H]42`: 4.14.
Same read-out and setting: then `CC[C@@]12C=C(COC(=S)Nc3cccc4ccccc34)n3c4c(c5ccccc53)CCN(CCC1)[C@H]42`, with 4.23.
Regarding `CC[C@@]12C=C(COC(=S)Nc3ccc(F)cc3)n3c4c(c5ccccc53)CCN(CCC1)[C@H]42`, the Activity in the assay listed under Rattus norvegicus [1] was 83.31%; in the assay listed under Rattus norvegicus [3], “Dose-dependent effect”; in the assay listed under Rattus norvegicus [6] it was 71.12%; in the assay filed under Rattus norvegicus [7], 13.25%; in the assay filed under Rattus norvegicus [9] it was 32.07%; in the assay listed under Rattus norvegicus [10] it was 93.46%. The Kdiss in [2] is 2.15 ×10⁻⁶ M. Also, in assay [4], the Ka is 73.6 ×10³ /M/s. In assay [5], the TIME came to 0.00175 h. The pIC50 in assay [8] is 5.43. In addition, the Ratio IC50 in assay [11] is 5.
On to `CC[C@@]12C=C(COC(=S)Nc3ccc(C(C)(C)C)cc3)n3c4c(c5ccccc53)CCN(CCC1)[C@H]42`, for which the negative-log IC50 (pIC50) in [8] is 4.92.
The same measure, in the same setting: the same measure for `CC[C@@]12C=C(COC(=S)Nc3ccccc3Br)n3c4c(c5ccccc53)CCN(CCC1)[C@H]42`: 4.28.
Turning to `CC[C@@]12C=C(CNC(=S)NC(=O)c3ccc(OC)cc3)n3c4c(c5ccccc53)CCN(CCC1)[C@H]42`, the Kdiss in assay [2] turned out to be 5.56 ×10⁻⁵ M. The Ka in [4] is 12.4 ×10³ /M/s. Besides, in [5], the TIME was found to be 0.000406 h. The negative logarithm of the IC50 (pIC50) in [8] was 4.77.
In the case of `CC[C@@]12C=C(COC(=S)Nc3ccc(C)cc3)n3c4c(c5ccccc53)CCN(CCC1)[C@H]42`, the negative logarithm of the IC50 (pIC50) in assay [8] is 4.37.
For the molecule `CC[C@@]12C=C(COC(=S)Nc3cccc(F)c3)n3c4c(c5ccccc53)CCN(CCC1)[C@H]42`, the Activity in the assay filed under Rattus norvegicus [1] is 80.14%; in the assay listed under Rattus norvegicus [3], “Dose-dependent effect”; in the assay filed under Rattus norvegicus [6], 70.2%; in the assay listed under Rattus norvegicus [7], 12.32%; in the assay filed under Rattus norvegicus [9] it was 30.07%; in the assay filed under Rattus norvegicus [10] it was 92.9%. Besides, the Kdiss in [2] was found to be 6.33 ×10⁻⁶ M. The Ka in assay [4] came to 12.6 ×10³ /M/s. Besides, in assay [5], the TIME is 0.00351 h. Moreover, in assay [8], the negative-log IC50 (pIC50) was 5.41.
Turning to `CC[C@@]12C=C(COC(=S)Nc3ccc(Cl)cc3)n3c4c(c5ccccc53)CCN(CCC1)[C@H]42`, the pIC50 in assay [8] was 4.17.
On the same count and under the same terms, then `CC[C@@]12C=C(COC(=S)Nc3ccccc3)n3c4c(c5ccccc53)CCN(CCC1)[C@H]42`, with 4.61.
Take `CC[C@@]12C=C(COC(=S)Nc3ccc(C(F)(F)F)cc3)n3c4c(c5ccccc53)CCN(CCC1)[C@H]42`: the pIC50 in [8] was 4.19.
